Here are results for ten compounds from patent publication US10344026B2, “Compositions and methods of targeting mutant K-ras” (NANTBIO, INC., priority 2017, dated 2019).

Holding throughout (type): cell-based
The target of one experiment is T1, K-Ras G12D (Homo sapiens, UniProt P01116, G12D).
T1 construct: expressed in transfected cells; host or cells: 293H cells
The experiment in a line: G-LISA Ras activation, 293H cells transfected with G12D mutant. The following applies: compound 1 hour. An outline of the steps:
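Cells: 293H, Ras plasmid transfection (5 μg). Cpd 3.125-25 μM, 1 h; WT cells + EGF 100 ng/ml, 2 min. Lysed on ice; active Ras by G-LISA.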

The test system of experiment [1] is Ishikawa (K-Ras wild type cell line). Nature of the experiment: Viability assay (CellTiterBlue, 72 hr) Ishikawa. The following applies: Homo sapiens, GI50, CellTiterBlue, Ishikawa K-Ras wild-type. An outline of the steps: (§1)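 1000 cells/well, 18 hr pre-incubation at 37 °C; compound added from DMSO stock, 0.5% DMSO final; 72 hr; CellTiterBlue 3 hr, fluorescence Ex550/Em590; GI50 normalized to DMSO = 100%, 100 uM tamoxifen = 0% viability.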
A general note: Alamar Blue is a resazurin reagent that responds to reducing activity.

Experiment [2] deals with U87-MG (K-Ras wild type cell line). Nature of the experiment: Viability assay (CellTiterBlue, 72 hr) U87-MG. The following applies: Homo sapiens, U-87 MG, GI50, CellTiterBlue, U87-MG K-Ras wild-type. An outline of the steps:
as §1

The subject of experiment [3] is HCC827 (K-Ras wild type cell line). Nature of the experiment: Viability assay (CellTiterBlue, 72 hr) HCC827. The settings on record: Homo sapiens, GI50, CellTiterBlue, HCC827 K-Ras wild-type. An outline of the steps: as §1
The test system of a further experiment is Panc1-G12D. The experiment in a line: Viability assay (CellTiterBlue, 72 hr) Panc1. The following applies: Homo sapiens, PANC-1, GI50, CellTiterBlue, Panc1 K-Ras G12D, read-out: 72 hr Cell Viability Panc1 (G12D). An outline of the steps:
as §1

Another experiment has as its system Panc10.05-G12D. The experiment in a line: Viability assay (CellTiterBlue, 72 hr) Panc10.05. The settings on record: Homo sapiens, Panc1005, GI50, CellTiterBlue, Panc10.05 K-Ras G12D, read-out: 72 hr Cell Viability Panc10.05 (G12D). An outline of the steps:
as §1

The subject of the next experiment is HCT116-G31D. The experiment in a line: Viability assay (CellTiterBlue, 72 hr) HCT116. The settings on record: Homo sapiens, HCT-116, GI50, CellTiterBlue, HCT116 K-Ras G13D, read-out: 72 hr Cell Viability HCT116 (G13D). An outline of the steps:
as §1

Experiment [4] deals with phospho-ERK in HCC827 (Wild-type). The experiment in a line: In-Cell Western phospho-ERK, HCC827. The following applies: Homo sapiens, 1 h; HCC827, one hour treatment; read-out: In-Cell Western HCC827 (Wild-type) Erk (P). An outline of the steps:
(§2)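 Read-out: imaged cellular fluorescence after phospho-ERK/phospho-Akt immunostaining; EC50 derived. Cells plated 3000/well, 18 hr 37° C, compound 1 hr, 0.5% DMSO. Full-inhibition controls: 1 uM BEZ235 (pAkt), 1 uM MEK Inhibitor II (pERK).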

Experiment [5] deals with phospho-Akt in HCC827 (Wild-type). Nature of the experiment: In-Cell Western phospho-Akt, HCC827. The following applies: Homo sapiens, 1 h; HCC827, one hour treatment; read-out: In-Cell Western HCC827 (Wild-type) Akt (P). As to the method:
In-cell phosphorylation assays for Erk and Akt were performed on several of the compounds and exemplary results are shown in Table 3 below using HCC827 and A375 cell lines for wild type K-Ras and Panc1 and Panc10.05 cell lines for G12D K-Ras mutants. Results are expressed in μM and corresponding structures are shown in FIGS. 2A-2G and Examples 1-152, above.
Cells are seeded in complete medium into black sided, clear-bottom 384-well microplates at 3000 cells/[…]/well. Plates are returned to 37° C. CO2 incubator for 18 hr. Drug is made as 200× in DMSO and diluted into medium to 10×. To each well is added 4 ul 10× test article or controls, and plates are returned to the incubator. Final assay DMSO concentration is 0.5%. After one hour, cells are fixed in formaldehyde, rinsed & permeabilized with triton X-100, and blocked with BSA/Goat serum blocking solution. Primary phospho-Akt and phospho-ERK antibodies are added and plates are incubated overnight at 4° C. Plates are rinsed with Tween-20 wash buffer and secondary antibody (Goat anti-rabbit, Thermofisher) is added. After 2 hours, plates are rinsed in Tween-20 wash buffer, and then PBS. Plates are imaged on the Celigo (Nexcelom) and cellular fluorescence is quantitated. Full inhibition of phospho-Akt is achieved with 1 uM BEZ235 (Sellekchem), while full inhibition of phospho-ERK is achieved with 1 uM MEK Inhibitor II Calbiochem). EC50 values are calculated using Graphpad Prism.

Experiment [6] relates to phospho-ERK in Panc1 (G12D). The experiment in a line: In-Cell Western phospho-ERK, Panc1. The settings on record: Homo sapiens, PANC-1, 1 h; Panc1, one hour treatment; read-out: In-Cell Western Panc1 (G12D) Erk (P). An outline of the steps:
as §2

The subject of experiment [7] is phospho-Akt in Panc1 (G12D). The experiment in a line: In-Cell Western phospho-Akt, Panc1. The settings on record: Homo sapiens, PANC-1, 1 h; Panc1, one hour treatment; read-out: In-Cell Western Panc1 (G12D) Akt (P). An outline of the steps:
as §2

T1 sequence (P01116 whole entry G12D): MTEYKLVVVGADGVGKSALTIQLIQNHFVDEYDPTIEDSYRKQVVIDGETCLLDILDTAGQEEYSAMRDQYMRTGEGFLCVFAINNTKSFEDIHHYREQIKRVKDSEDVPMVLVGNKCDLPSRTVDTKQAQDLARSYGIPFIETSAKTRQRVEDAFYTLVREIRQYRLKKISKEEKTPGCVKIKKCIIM

Turning to `CCc1nn(C)cc1C(=O)Nc1nc(-c2ccc3c(c2)CCC(=O)N3)cs1` [Compound 37, 3-ethyl-1-methyl-N-(4-(2-oxo-1,2,3,4-tetrahydroquinolin-6-yl)thiazol-2-yl)-1H-pyrazole-4-carboxamide], the IC50 on K-Ras G12D is more than 25 µM; in experiment [1] it was more than 25 µM; in [2] it was 6 µM; in [3] it was 7 µM; in the experiment with Panc1-G12D it was more than 25 µM; in the experiment on Panc10.05-G12D, more than 25 µM. The IC50 in the experiment with HCT116-G31D was more than 25 µM. Moreover, the EC50 was more than 25 µM in experiment [4], more than 25 µM in [5], more than 25 µM in experiment [6] and 26 µM in [7].

Take `CCn1cc(C(=O)Nc2nc(-c3ccc4c(c3)CCC(=O)N4)cs2)c(C(F)(F)F)n1` [Compound 39, 1-ethyl-N-(4-(2-oxo-1,2,3,4-tetrahydroquinolin-6-yl)thiazol-2-yl)-3-(trifluoromethyl)-1-pyrazole-4-carboxamide]: the IC50 (in [1]; in experiment [2]; in experiment [3]; in the experiment with Panc1-G12D; in the experiment with Panc10.05-G12D; with HCT116-G31D) was more than 25 µM each time. Further, the EC50 in experiment [4] is more than 25 µM; in experiment [5], more than 25 µM; in experiment [6] it was 28 µM; in experiment [7], more than 25 µM.

As to `COc1nn(C)cc1C(=O)Nc1nc(-c2ccc3c(c2)CCC(=O)N3)cs1` [Compound 42, 3-methoxy-1-methyl-N-(4-(2-oxo-1,2,3,4-tetrahydroquinolin-6-yl)thiazol-2-yl)-1H-pyrazole-4-carboxamide], the IC50 (in [1]; in experiment [2]; in experiment [3]; with Panc1-G12D; in the experiment on Panc10.05-G12D; in the experiment with HCT116-G31D) was more than 25 µM each time. Besides, the EC50 in [4], in [5], in [6] and in [7] was more than 25 µM throughout.

`CCn1ncc(C(=O)Nc2nc(-c3ccc4c(c3)CCC(=O)N4)cs2)c1C1CC1` [Compound 33, 5-cyclopropyl-1-ethyl-N-(4-(2-oxo-1,2,3,4-tetrahydroquinolin-6-yl)thiazol-2-yl)-1H-pyrazole-4-carboxamide]: the IC50 (on K-Ras G12D; in experiment [1]; in experiment [2]; in experiment [3]; in the experiment with Panc1-G12D; in the experiment on Panc10.05-G12D) was more than 25 µM each time. Also, the IC50 in the experiment on HCT116-G31D is more than 25 µM. For the same compound, the EC50 in experiment [4], in experiment [5], in experiment [6] and in experiment [7] was more than 25 µM in each case.

With `CCn1cc(C(=O)Nc2nc(-c3ccc4c(c3)CCC(=O)N4)cs2)cn1` [Compound 34, 1-ethyl-N-(4-(2-oxo-1,2,3,4-tetrahydroquinolin-6-yl)thiazol-2-yl)-1H-pyrazole-4-carboxamide], the IC50 was 15.8 µM against K-Ras G12D; 9 µM in [1]; more than 25 µM in [2]; more than 25 µM in experiment [3]; more than 25 µM in the experiment on Panc1-G12D; 7 µM with Panc10.05-G12D. In addition, the IC50 in the experiment on HCT116-G31D is more than 25 µM. Also, the EC50 in experiment [4] was more than 25 µM; in [5], more than 25 µM; in experiment [6] it was 15 µM; in experiment [7], more than 25 µM.

For the compound `Cc1nn(-c2ccccc2)cc1C(=O)Nc1nc(-c2ccc3c(c2)CCC(=O)N3)cs1` [Compound 31, 3-methyl-N-(4-(2-oxo-1,2,3,4-tetrahydroquinolin-6-yl)thiazol-2-yl)-1-phenyl-1H-pyrazole-4-carboxamide], the IC50 (in [1]; in experiment [2]; in experiment [3]; in the experiment with Panc1-G12D; in the experiment with Panc10.05-G12D; in the experiment with HCT116-G31D) was more than 25 µM throughout. For the same compound, the EC50 in experiment [4], in experiment [5], in experiment [6] and in [7] was more than 25 µM each time.

On to `CC(C)c1nn(C)cc1C(=O)Nc1nc(-c2ccc3c(c2)CCC(=O)N3)cs1` [Compound 32, 3-isopropyl-1-methyl-N-(4-(2-oxo-1,2,3,4-tetrahydroquinolin-6-yl)thiazol-2-yl)-1H-pyrazole-4-carboxamide], for which the IC50 was more than 25 µM in experiment [1]; 9 µM in experiment [2]; 8 µM in [3]; more than 25 µM with Panc1-G12D; more than 25 µM with Panc10.05-G12D; more than 25 µM with HCT116-G31D. Also, the EC50 in experiment [4] was 20 µM; in experiment [5] it was more than 25 µM; in [6], more than 25 µM; in experiment [7] it was 26 µM.

`Cn1cc(C(=O)Nc2nc(-c3ccc4c(c3)CCC(=O)N4)cs2)c(C(F)F)n1` [Compound 27, 3-(difluoromethyl)-1-methyl-N-(4-(2-oxo-1,2,3,4-tetrahydroquinolin-6-yl)thiazol-2-yl)-1H-pyrazole-4-carboxamide]: the IC50 was more than 25 µM in experiment [1]; more than 25 µM in experiment [2]; more than 25 µM in experiment [3]; more than 25 µM in the experiment on Panc1-G12D; 16 µM in the experiment on Panc10.05-G12D; more than 25 µM in the experiment with HCT116-G31D. In addition, the EC50 in experiment [4] is more than 25 µM; in [5], more than 25 µM; in [6], 14 µM; in experiment [7] it was more than 25 µM.

As to `Cn1cc(C(=O)Nc2nc(-c3ccc4c(c3)CCC(=O)N4)cs2)c(C(C)(C)C)n1` [Compound 38, 3-(tert-butyl)-1-methyl-N-(4-(2-oxo-1,2,3,4-tetrahydroquinolin-6-yl)thiazol-2-yl)-1H-pyrazole-4-carboxamide], the IC50 in experiment [1] was 7 µM; in [2] it was more than 25 µM; in experiment [3] it was more than 25 µM; with Panc1-G12D it was more than 25 µM; in the experiment on Panc10.05-G12D it was 7 µM; in the experiment with HCT116-G31D, more than 25 µM. The EC50 in [4] was 13 µM; in experiment [5], more than 25 µM; in [6], more than 25 µM; in experiment [7], 24 µM.

In the case of `Cn1cc(C(=O)Nc2nc(-c3ccc4c(c3)CCC(=O)N4)cs2)cn1` [Compound 28, 1-methyl-N-(4-(2-oxo-1,2,3,4-tetrahydroquinolin-6-yl)thiazol-2-yl)-1H-pyrazole-4-carboxamide], the IC50 (in experiment [1]; in [2]; in experiment [3]; in the experiment with Panc1-G12D; in the experiment on Panc10.05-G12D; in the experiment on HCT116-G31D) was more than 25 µM each time. Moreover, the EC50 was 16 µM in [4], more than 25 µM in experiment [5], more than 25 µM in [6] and more than 25 µM in experiment [7].
